Results on 42 compounds are retold here after paper PMC11855827, “High-Throughput Screening of Five Compound Libraries for Anthelmintic Activity and Toxicity Leads to the Discovery of Two Flavonoid Compounds” (International Journal of Molecular Sciences, 2025).

For this test, the system named is C. elegans. Nature of the test: microbe, parasite or virus in culture. The settings on record: Caenorhabditis elegans.
[1] abbreviates: 0 h, read-out: Percentage of motility inhibition 0 h, Table S2, C. elegans SS assay, 110 μM, 0 h, averages of 4 data points.
The mark [2] stands for this setting: 24 h, read-out: Percentage of motility inhibition 24 h, Table S2, C. elegans SS assay, 110 μM, 24 h, averages of 4 data points.
Where [3] appears, read: 0 h, read-out: Percentage of motility inhibition 0 h.
Where [4] appears, read: 24 h, read-out: Percentage of motility inhibition 24 h.

The inhibition is the drop in the measured response relative to a control, in per cent.

Like-named read-outs stand apart in the source and are kept apart here.

As for `CC(=O)NS(=O)(=O)c1ccc(NC(=O)c2ccccc2C(=O)O)cc1` [Phthalylsulfacetamide], the inhibition at 110 µM stood at 32% under setting [1] and 2% under setting [2].
For `O=C(O)c1ccccc1C(=O)Nc1ccc(S(=O)(=O)Nc2nccs2)cc1` [Phthalylsulfathiazole], the inhibition at 110 µM under setting [1] came out at 12% and the inhibition at 110 µM under setting [2] is 0%.
The corresponding values for `COc1cc(C(=O)O[C@H]2[C@@H]3C=CO[C@@H](O[C@@H]4O[C@H](CO)[C@@H](O)[C@H](O)[C@H]4O)[C@@H]3[C@@]3(CO)O[C@@H]23)ccc1O` [Picroside II] are 0% and 13%.
With `O=C(/C=C/c1ccccc1)OC[C@H]1O[C@@H](O[C@@H]2OC=C[C@H]3[C@H](O)[C@@H]4O[C@]4(CO)[C@@H]23)[C@H](O)[C@@H](O)[C@@H]1O` [Picroside I], the inhibition at 110 µM under setting [1] is 6% and the inhibition at 110 µM under setting [2] was 17%.
On the same counts, the results for `CC(C)(O)[C@@H]1[C@H]2OC(=O)[C@@H]1[C@]1(O)C[C@H]3O[C@]34C(=O)O[C@H]2[C@]14C` [Picrotin] are 0% and 0%.
As to `O=C(O)[C@H]1C2CCC(CC2)[C@@H]1Nc1nc(-c2c[nH]c3ncc(F)cc23)ncc1F` [Pimodivir], the inhibition at 110 µM by setting is: under setting [1], 7%; under setting [2], 9%.
The corresponding values for `O=C1C[C@@H](c2ccccc2)Oc2cc(O)cc(O)c21` [Pinocembrin] are 44% and 5%.
Consider `COc1cc(O)c2c(c1)O[C@H](c1ccccc1)CC2=O` [Pinostrobin], for which the inhibition at 110 µM reads like this: under setting [3], 1%; under setting [4], 7%.
For the compound `CCn1cc(C(=O)O)c(=O)c2cnc(N3CCNCC3)nc21` [Pipemidic acid], the inhibition at 110 µM is, setting by setting: under setting [1], 31%; under setting [2], 14%.
The corresponding values for `C1CNCCN1` [Piperazine] are 3% and 0%.
For the compound `O=C(/C=C/C=C/c1ccc2c(c1)OCO2)N1CCCCC1` [Piperine], the inhibition at 110 µM stood at 0% under setting [1] and 21% under setting [2].
On to `CC1=CC(=O)C(C(C)C)CC1` (centres unmarked) [Piperitone], for which the inhibition at 110 µM turned out to be 10% under setting [1] and 11% under setting [2].
For `CC(C)CNC(=O)/C=C/C=C/c1ccc2c(c1)OCO2` [Piperlonguminine], the inhibition at 110 µM under setting [1] was found to be 34% and the inhibition at 110 µM under setting [2] came out at 22%.
The corresponding values for `CCn1cc(C(=O)O)c(=O)c2cnc(N3CCCC3)nc21` [Piromidic acid] are 9% and 8%.
In the case of `C[C@@H]1O[C@@H](O[C@H]2[C@H](OC(=O)[C@]34CCC(C)(C)C[C@H]3C3=CC[C@@H]5[C@@]6(C)C[C@H](O)[C@H](O[C@@H]7O[C@H](CO)[C@@H](O)[C@H](O[C@@H]8O[C@H](CO)[C@@H](O)[C@H](O)[C@H]8O)[C@H]7O)C(CO)(CO)[C@@H]6CC[C@@]5(C)[C@]3(C)C[C@H]4O)OC[C@H](O)[C@@H]2O)[C@H](O)[C@H](O)[C@H]1O[C@@H]1OC[C@@H](O)[C@H](O[C@@H]2OC[C@](O)(CO)[C@H]2O)[C@H]1O` [Platycodin D2], the inhibition at 110 µM reads like this: under setting [1], 0%; under setting [2], 2%.
As to `C[C@@H]1O[C@@H](O[C@H]2[C@H](OC(=O)[C@]34CCC(C)(C)C[C@H]3C3=CC[C@@H]5[C@@]6(C)C[C@H](O)[C@H](O[C@@H]7O[C@H](CO)[C@@H](O)[C@H](O)[C@H]7O)C(CO)(CO)[C@@H]6CC[C@@]5(C)[C@]3(C)C[C@H]4O)OC[C@H](O)[C@@H]2O)[C@H](O)[C@H](O)[C@H]1O[C@@H]1OC[C@@H](O)[C@H](O[C@@H]2OC[C@](O)(CO)[C@H]2O)[C@H]1O` [Platycodin D], the inhibition at 110 µM is 0% under setting [1] and 15% under setting [2].
Take `Cc1cc(CCCOc2c(C)cc(-c3noc(C(F)(F)F)n3)cc2C)on1` [Pleconaril]: the inhibition at 110 µM by setting is: under setting [1], 4%; under setting [2], 14%.
Turning to `C=C[C@]1(C)C[C@@H](OC(=O)CO)[C@]2(C)[C@H](C)CC[C@]3(CCC(=O)[C@H]32)[C@@H](C)[C@@H]1O` [Pleuromutilin], the inhibition at 110 µM is, setting by setting: under setting [1], 33%; under setting [2], 10%.
The corresponding values for `COc1cc([C@@H]2c3cc4c(cc3[C@H](O)[C@H]3COC(=O)[C@H]23)OCO4)cc(OC)c1OC` [Podofilox] are 0% and 9%.
Take `C[C@@H]1CC[C@]2(C(=O)O)CC[C@]3(C)C(=CC[C@@H]4[C@@]5(C)CC[C@H](O)C(C)(C)[C@@H]5CC[C@]43C)[C@@H]2[C@]1(C)O` [Pomolic acid]: the inhibition at 110 µM under setting [1] came to 29% and the inhibition at 110 µM under setting [2] was determined as 67%.
For `COc1ccc([C@@H]2CC(=O)c3c(O)cc(O[C@@H]4O[C@H](CO)[C@@H](O)[C@H](O)[C@H]4O[C@@H]4O[C@@H](C)[C@H](O)[C@@H](O)[C@H]4O)cc3O2)cc1` [Poncirin], the inhibition at 110 µM was 13% under setting [1] and 3% under setting [2].
On the same counts, the results for `C=C1C(=O)[C@@]23[C@@H]4OC5O[C@@]2(O)[C@@H](O)[C@@H]2C(C)(C)CC[C@@H](O)[C@]52[C@@H]3CC[C@@H]14` [Ponicidin] are 4% and 0%.
Turning to `C=C(CC[C@@H](C(=O)O)[C@H]1[C@H](O)C[C@@]2(C)C3=CC[C@@H](C(=C)C)[C@](C)(CCC(=O)O)C3=CC[C@]12C)C(C)C` [Poricoic acid A], the inhibition at 110 µM was determined as 2% under setting [3] and 8% under setting [4].
Take `C=C(C)[C@@H]1CC=C2C(=CC[C@]3(C)[C@@H]([C@@H](CCC=C(C)C)C(=O)O)[C@H](O)C[C@@]23C)[C@@]1(C)CCC(=O)O` [Poricoic acid B]: the inhibition at 110 µM under setting [1] was 14% and the inhibition at 110 µM under setting [2] was found to be 0%.
The corresponding values for `CC[C@@H]([C@H](C)O)n1ncn(-c2ccc(N3CCN(c4ccc(OC[C@@H]5CO[C@@](Cn6cncn6)(c6ccc(F)cc6F)C5)cc4)CC3)cc2)c1=O` [Posaconazole] are 23% and 0%.
On the same counts, the results for `O=C(C1CCCCC1)N1CC(=O)N2CCc3ccccc3C2C1` (centres unmarked) [Praziquantel] are 27% and 0%.
As for `O=C(O)CCc1nc2ccccc2[nH]1` [Procodazole], the inhibition at 110 µM runs as follows: under setting [3], 0%; under setting [4], 3%.
For the compound `Oc1cc(O)c2c(c1)O[C@H](c1ccc(O)c(O)c1)[C@H](O)[C@H]2c1c(O)cc(O)c2c1O[C@H](c1ccc(O)c(O)c1)[C@H](O)C2` [Procyanidin B2], the inhibition at 110 µM is, setting by setting: under setting [1], 14%; under setting [2], 27%.
As for `Oc1cc(O)c2c(c1)O[C@H](c1ccc(O)c(O)c1)[C@H](O)[C@H]2c1c(O)cc(O)c2c1O[C@H](c1ccc(O)c(O)c1)[C@H](O)[C@H]2c1c(O)cc(O)c2c1O[C@H](c1ccc(O)c(O)c1)[C@H](O)C2` [Procyanidin C1], the inhibition at 110 µM was 2% under setting [1] and 29% under setting [2].
As to `CC(=O)[C@H]1CC[C@H]2[C@@H]3CCC4=CC(=O)CC[C@]4(C)[C@H]3CC[C@]12C` [Progesterone], the inhibition at 110 µM worked out at 0% under setting [1] and 12% under setting [2].
Turning to `[H]/N=C(\N/C(=N/[H])Nc1ccc(Cl)cc1)NC(C)C` [Proguanil], the inhibition at 110 µM came out at 36% under setting [1] and 6% under setting [2].
The corresponding values for `CNC(=O)Oc1ccccc1OC(C)C` [Propoxur] are 16% and 9%.
On to `CC(C)NCC(O)COc1cccc2ccccc12` (centres unmarked) [Propranolol, reference compound], for which the inhibition at 110 µM is, setting by setting: (0 h, read-out: Inhibition (%) 110 μM (0 h), C. elegans L4 motility, 110 μM, 0 h, mean ± SD of four experiments) 84%; under setting [1], 0%; (24 h, read-out: Inhibition (%) 110 μM (24 h), C. elegans L4 motility, 110 μM, 24 h, mean ± SD of four experiments) 35%; under setting [2], 0%.
Regarding `CCCOC(=O)c1cc(O)c(O)c(O)c1` [Propyl gallate], the inhibition at 110 µM by setting is: under setting [1], 1%; under setting [2], 0%.
With `CCCc1cc(C(N)=S)ccn1` [Prothionamide], the inhibition at 110 µM runs as follows: under setting [1], 44%; under setting [2], 7%.
The corresponding values for `C=CC1=C(C)c2cc3[nH]c(cc4nc(cc5[nH]c(cc1n2)c(C)c5CCC(=O)O)C(CCC(=O)O)=C4C)c(C)c3C=C` [Protoporphyrin IX] are 3% and 17%.
With `Cc1oc(=O)oc1CN1CCN(c2cc3c(cc2F)c(=O)c(C(=O)O)c2n3C(C)S2)CC1` (centres unmarked) [Prulifloxacin], the inhibition at 110 µM is, setting by setting: under setting [1], 27%; under setting [2], 0%.
In the case of `COc1cc(O)c2c(=O)c(-c3ccc(O)cc3)coc2c1` [Prunetin], the inhibition at 110 µM reads like this: under setting [1], 0%; under setting [2], 7%.
The corresponding values for `O=C1C[C@@H](c2ccc(O)cc2)Oc2cc(O[C@@H]3O[C@H](CO)[C@@H](O)[C@H](O)[C@H]3O)cc(O)c21` [Prunin] are 13% and 2%.
For `CC1(C)CC[C@]2(C(=O)O[C@@H]3O[C@H](CO)[C@@H](O)[C@H](O)[C@H]3O)CC[C@]3(C)C(=CC[C@@H]4[C@@]5(C)CC[C@H](O[C@@H]6O[C@H](C(=O)O)[C@@H](O)[C@H](O)[C@H]6O[C@@H]6OC[C@@H](O)[C@H](O)[C@H]6O)C(C)(C)[C@@H]5CC[C@]43C)[C@@H]2C1` [Pseudoginsenoside RT1], the inhibition at 110 µM came to 1% under setting [1] and 0% under setting [2].
The corresponding values for `CC(=O)O[C@]12CCC(C)=CC[C@]13CC[C@H]2[C@@](C)(/C=C/C=C(\C)C(=O)O)OC3=O` [Pseudolaric Acid A] are 6% and 13%.
For the compound `COC(=O)C1=CC[C@@]23CC[C@@H]([C@@](C)(/C=C/C=C(\C)C(=O)O)OC2=O)[C@@]3(OC(C)=O)CC1` [Pseudolaric Acid B], the inhibition at 110 µM is, setting by setting: under setting [3], 0%; under setting [4], 9%.
